Experimental data as given in publication PMC5578959, “Selective LRRK2 kinase inhibition reduces phosphorylation of endogenous Rab10 and Rab12 in human peripheral mononuclear blood cells” (Scientific Reports, 2017).

Experiments:
Experiment in all cases: KiNativ profiling in human PBMCs
Format in all cases: binding
IRAK4 = test system: T1, IRAK4
T1 construct: purchased ActivX Technologies (KiNativ)
Description: (§1) Compounds were shipped to ActivX Technologies (San Diego, US) where LRRK2 target engagement and broad kinase profiling was performed using KiNativ™ procedures. Live cell treatment of human peripheral blood mononuclear cells (PBMCs) at two compound concentrations (1 µM and 0.1 µM) were used to evaluate and compare in vitro target engagement and kinase selectivity, respectively (see Supplementary File 1).

ILK = test system: T2, ILK
T2 construct: purchased ActivX Technologies (KiNativ)
Description: as §1

MAP2K6 = test system: T3, MAP2K6
T3 construct: purchased ActivX Technologies (KiNativ)
Description: as §1

PI4KB = test system: T4, PI4KB; conditions: ATP
T4 construct: purchased ActivX Technologies (KiNativ)
Description: as §1

NEK1 = test system: T5, NEK1; conditions: Lys2
T5 construct: purchased ActivX Technologies (KiNativ)
Description: as §1

MAP3K2 = test system: T6, MAP3K2; conditions: Lys1
T6 construct: purchased ActivX Technologies (KiNativ)
Description: as §1

YANK3 = test system: T7, YANK3; conditions: Lys2
T7 construct: purchased ActivX Technologies (KiNativ)
Description: as §1

PLK1 = test system: T8, PLK1; conditions: Lys1
T8 construct: purchased ActivX Technologies (KiNativ)
Description: as §1

MAST3 = test system: T9, MAST3; conditions: Lys2
T9 construct: purchased ActivX Technologies (KiNativ)
Description: as §1

CDK5 = test system: T10, CDK5
T10 construct: purchased ActivX Technologies (KiNativ)
Description: as §1

CDK7 = test system: T11, CDK7; conditions: Lys2
T11 construct: purchased ActivX Technologies (KiNativ)
Description: as §1

CaMKK2 = test system: T12, CaMKK2
T12 construct: purchased ActivX Technologies (KiNativ)
Description: as §1

Wnk1,Wnk2,Wnk3 = conditions: Lys2
Description: as §1

eEF2K = test system: T13, eEF2K; conditions: ATP
T13 construct: purchased ActivX Technologies (KiNativ)
Description: as §1

PITSLRE = test system: T14, PITSLRE; conditions: Lys2
T14 construct: purchased ActivX Technologies (KiNativ)
Description: as §1

PKN1 = test system: T15, PKN1
T15 construct: purchased ActivX Technologies (KiNativ)
Description: as §1

smMLCK = test system: T16, smMLCK
T16 construct: purchased ActivX Technologies (KiNativ)
Description: as §1

CaMK2d = test system: T17, CaMK2d; conditions: Lys1
T17 construct: purchased ActivX Technologies (KiNativ)
Description: as §1

CDC2 = test system: T18, CDC2; conditions: Lys2
T18 construct: purchased ActivX Technologies (KiNativ)
Description: as §1

IRAK1 = test system: T19, IRAK1; conditions: Lys2
T19 construct: purchased ActivX Technologies (KiNativ)
Description: as §1

RSK1,RSK2,RSK3 domain1 = conditions: Lys2
Description: as §1

HPK1 = test system: T20, HPK1
T20 construct: purchased ActivX Technologies (KiNativ)
Description: as §1

NuaK2 = test system: T21, NuaK2; conditions: Lys1
T21 construct: purchased ActivX Technologies (KiNativ)
Description: as §1

MAP2K3 = test system: T22, MAP2K3
T22 construct: purchased ActivX Technologies (KiNativ)
Description: as §1

MSK1 domain1 = test system: T23, MSK1 domain1; conditions: Lys2
T23 construct: MSK1 domain1; purchased ActivX Technologies (KiNativ)
Description: as §1

[1] = test system: ZC1/HGK,ZC2/TNIK,ZC3/MINK; conditions: Lys2
Description: as §1

MST4,YSK1 = conditions: Lys2
Description: as §1

GPRK6 = test system: T24, GPRK6; conditions: Lys2
T24 construct: purchased ActivX Technologies (KiNativ)
Description: as §1

MST3 = test system: T25, MST3
T25 construct: purchased ActivX Technologies (KiNativ)
Description: as §1

CaMK1d = test system: T26, CaMK1d
T26 construct: purchased ActivX Technologies (KiNativ)
Description: as §1

CK1g2 = test system: T27, CK1g2; conditions: Lys2
T27 construct: purchased ActivX Technologies (KiNativ)
Description: as §1

NEK4 = test system: T28, NEK4; conditions: Lys2
T28 construct: purchased ActivX Technologies (KiNativ)
Description: as §1

LCK = test system: T29, LCK; conditions: Activation Loop
T29 construct: purchased ActivX Technologies (KiNativ)
Description: as §1

IKKe,TBK1 = conditions: Lys2
Description: as §1

RSK2 domain1 = test system: T30, RSK2 domain1
T30 construct: RSK2 domain1; purchased ActivX Technologies (KiNativ)
Description: as §1

Cn1cc(-c2c[nH]c3ncnc(N4CCOCC4)c23)cc1C#N [PFE-360]
% Inhibition (IRAK4; 0.1µM, Lys1): 4.1% | % Inhibition (IRAK4; 0.1µM, Lys2): 8% | % Inhibition (IRAK4; 1µM, Lys1): -0.3% | % Inhibition (IRAK4; 1µM, Lys2): 1.4% | % Inhibition (ILK; 0.1µM, Lys1): 4.8% | % Inhibition (ILK; 0.1µM, Protein Kinase Domain): -4% | % Inhibition (ILK; 1µM, Lys1): 6.2% | % Inhibition (ILK; 1µM, Protein Kinase Domain): 26% | % Inhibition (MAP2K6; 0.1µM, Lys1): -18% | % Inhibition (MAP2K6; 0.1µM, Lys2): 14.6% | % Inhibition (MAP2K6; 1µM, Lys1): 1.8% | % Inhibition (MAP2K6; 1µM, Lys2): 6.2% | % Inhibition (PI4KB; 0.1µM, peptide LLSVIVKCGDDLRQELLAFQVLK): -14.7% | % Inhibition (PI4KB; 0.1µM, peptide VPHTQAVVLNSKDK): 3.6% | % Inhibition (PI4KB; 1µM, peptide LLSVIVKCGDDLRQELLAFQVLK): -10.6% | % Inhibition (PI4KB; 1µM, peptide VPHTQAVVLNSKDK): -12.4% | % Inhibition (NEK1; 0.1µM): 5.9% | % Inhibition (NEK1; 1µM): 2.6% | % Inhibition (MAP3K2; 0.1µM): -14.1% | % Inhibition (MAP3K2; 1µM): -24.4% | % Inhibition (YANK3; 0.1µM): 8.2% | % Inhibition (YANK3; 1µM): 13.5% | % Inhibition (PLK1; 0.1µM): -4.1% | % Inhibition (PLK1; 1µM): -6.7% | % Inhibition (MAST3; 0.1µM): 0.2% | % Inhibition (MAST3; 1µM): -2.7% | % Inhibition (CDK5; 0.1µM, Lys1): -2.7% | % Inhibition (CDK5; 0.1µM, Lys2): 3.9% | % Inhibition (CDK5; 1µM, Lys1): -6.7% | % Inhibition (CDK5; 1µM, Lys2): -7.1% | % Inhibition (CDK7; 0.1µM): 5% | % Inhibition (CDK7; 1µM): -4.6% | % Inhibition (CaMKK2; 0.1µM, Lys1): -23.9% | % Inhibition (CaMKK2; 0.1µM, Lys2): -16.3% | % Inhibition (CaMKK2; 1µM, Lys1): -1.2% | % Inhibition (CaMKK2; 1µM, Lys2): 4.6% | % Inhibition (Wnk1,Wnk2,Wnk3; 0.1µM): 11.3% | % Inhibition (Wnk1,Wnk2,Wnk3; 1µM): 1.3% | % Inhibition (eEF2K; 0.1µM): 15.7% | % Inhibition (eEF2K; 1µM): -1.8% | % Inhibition (PITSLRE; 0.1µM): -3.8% | % Inhibition (PITSLRE; 1µM): -18.7% | % Inhibition (PKN1; 0.1µM, Lys1): -4.7% | % Inhibition (PKN1; 0.1µM, Lys2): -3.5% | % Inhibition (PKN1; 1µM, Lys1): -10.8% | % Inhibition (PKN1; 1µM, Lys2): -25.9% | % Inhibition (smMLCK; 0.1µM, Lys1): 1.5% | % Inhibition (smMLCK; 0.1µM, Lys2): -14.6% | % Inhibition (smMLCK; 1µM, Lys1): -16.9% | % Inhibition (smMLCK; 1µM, Lys2): 3.3% | % Inhibition (CaMK2d; 0.1µM): 0.1% | % Inhibition (CaMK2d; 1µM): -3% | % Inhibition (CDC2; 0.1µM, peptide DLKPQNLLIDDK): -1.5% | % Inhibition (CDC2; 0.1µM, peptide DLKPQNLLIDDKGTIK): -4.2% | % Inhibition (CDC2; 1µM, peptide DLKPQNLLIDDK): 4.1% | % Inhibition (IRAK1; 0.1µM): -6.1% | % Inhibition (IRAK1; 1µM): -11.8% | % Inhibition (RSK1,RSK2,RSK3 domain1; 0.1µM): 14.5% | % Inhibition (RSK1,RSK2,RSK3 domain1; 1µM): 16.3% | % Inhibition (HPK1; 0.1µM, Lys1): -22.3% | % Inhibition (HPK1; 0.1µM, Lys2): 1.2% | % Inhibition (HPK1; 1µM, Lys1): 7.8% | % Inhibition (HPK1; 1µM, Lys2): 0% | % Inhibition (NuaK2; 0.1µM): 14.4% | % Inhibition (NuaK2; 1µM): 4.6% | % Inhibition (MAP2K3; 0.1µM, Lys1): -7.9% | % Inhibition (MAP2K3; 0.1µM, Lys2): 9.4% | % Inhibition (MAP2K3; 1µM, Lys1): 11.1% | % Inhibition (MAP2K3; 1µM, Lys2): -11.7% | % Inhibition (MSK1 domain1; 0.1µM): -7.8% | % Inhibition (MSK1 domain1; 1µM): -5.1% | % Inhibition ([1]; 0.1µM): 10.3% | % Inhibition ([1]; 1µM): -7.3% | % Inhibition (MST4,YSK1; 0.1µM): -0.2% | % Inhibition (MST4,YSK1; 1µM): -16.6% | % Inhibition (GPRK6; 0.1µM): 5.7% | % Inhibition (GPRK6; 1µM): 0.4% | % Inhibition (MST3; 0.1µM, Lys1): -15.8% | % Inhibition (MST3; 0.1µM, Lys2): -6.1% | % Inhibition (MST3; 1µM, Lys1): -21.2% | % Inhibition (MST3; 1µM, Lys2): -16.2% | % Inhibition (CaMK1d; 0.1µM, Lys1): 8% | % Inhibition (CaMK1d; 0.1µM, Lys2): 6.4% | % Inhibition (CaMK1d; 1µM, Lys1): -1.5% | % Inhibition (CaMK1d; 1µM, Lys2): 20.2% | % Inhibition (CK1g2; 0.1µM): -2% | % Inhibition (CK1g2; 1µM): -13.3% | % Inhibition (NEK4; 0.1µM): 9.8% | % Inhibition (NEK4; 1µM): -8.3% | % Inhibition (LCK; 0.1µM): -11.6% | % Inhibition (LCK; 1µM): -0.3% | % Inhibition (IKKe,TBK1; 0.1µM): -25.5% | % Inhibition (IKKe,TBK1; 1µM): 16% | % Inhibition (RSK2 domain1; 0.1µM, ATP Loop): 13.2% | % Inhibition (RSK2 domain1; 0.1µM, Activation Loop): 9.2% | % Inhibition (RSK2 domain1; 0.1µM, Lys2): -0.1% | % Inhibition (RSK2 domain1; 1µM, ATP Loop): 21.8% | % Inhibition (RSK2 domain1; 1µM, Activation Loop): 20.3% | % Inhibition (RSK2 domain1; 1µM, Lys2): 22.9%
